Laboratory results published in PubChem BioAssay (NCI).
“And” between values parts separate entries of the source, which are not always exact repeats. Equal entries are not always repeated.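 Exposure lasted 48 hours, with cells grown in 96-well plates and compounds tested at five concentrations. GI50 is the concentration that inhibits growth by half. The concentration for full growth arrest is given as TGI.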

Tests used:
Experiment in all cases: NCI-60 cell line screen, 48 h
OVCAR-4 ovarian = system: OVCAR-4 ovarian
786-0 renal = system: 786-0 renal
KM12 colon = system: KM12 colon
SK-MEL-28 melanoma = system: SK-MEL-28 melanoma
RXF 393 renal = system: RXF 393 renal
UACC-62 melanoma = system: UACC-62 melanoma
SF-295 CNS = system: SF-295 CNS
NCI/ADR-RES ovarian = system: NCI/ADR-RES ovarian
TK-10 renal = system: TK-10 renal
MDA-MB-435 = system: MDA-MB-435

SMILES | GI50 (OVCAR-4 ovarian) | TGI (OVCAR-4 ovarian) | TGI (786-0 renal) | TGI (KM12 colon) | GI50 (SK-MEL-28 melanoma) | TGI (SK-MEL-28 melanoma) | TGI (RXF 393 renal) | GI50 (UACC-62 melanoma) | TGI (UACC-62 melanoma) | GI50 (SF-295 CNS) | TGI (NCI/ADR-RES ovarian) | GI50 (TK-10 renal) | TGI (TK-10 renal) | TGI (MDA-MB-435) | TGI (SF-295 CNS)
COC(=O)CCNc1c2ccccc2nc2cccc([N+](=O)[O-])c12 | 0.00454 µM | 0.0251 µM | 0.00134 µM | 0.00451 µM | 0.0029 µM | 0.0112 µM and 0.0918 µM | 0.00217 µM | 0.00136 µM | 0.00428 µM and 0.0364 µM | 0.00261 µM | 0.068 µM | 0.00304 µM | 0.0312 µM | 0.00104 µM | –
C/C=C(\C)C(=O)O[C@@H]1CC(C)(C)CC2C3=CCC4[C@]56CC[C@](O)(OC5)C(C)(C)C6CC[C@@]4(C)C3(C)CC[C@]21C(=O)O (some centres undefined) | – | > 100 µM | > 100 µM | > 100 µM | – | > 100 µM | > 100 µM | – | > 100 µM | – | > 100 µM | – | > 100 µM | > 100 µM | > 100 µM
O=[N+]([O-])c1cc2ccc(N(CCO)CCO)nc2nc1N(CCO)CCO | – | > 100 µM | > 100 µM | > 100 µM | – | > 100 µM | > 100 µM | – | > 100 µM | – | > 100 µM | – | > 100 µM | > 100 µM | > 100 µM
C=CCOC(OCC=C)/C(Br)=C/C | – | 63.7 µM | 34 µM | > 100 µM | – | > 100 µM | > 100 µM | – | > 100 µM | – | 89.2 µM | – | > 100 µM | > 100 µM | > 100 µM
O=C(C/C(=N/O)C(F)(F)F)c1cccs1 | – | > 100 µM | > 100 µM | > 100 µM | – | > 100 µM | > 100 µM | – | > 100 µM | – | > 100 µM | – | > 100 µM | > 100 µM | > 100 µM
O=C(O)/C(=C\c1ccc(O)cc1)c1cccc2ccccc12 | – | > 100 µM | > 100 µM | > 100 µM | – | > 100 µM | > 100 µM | – | > 100 µM | – | > 100 µM | – | > 100 µM | > 100 µM | > 100 µM
CC(C(=O)c1ccncc1)c1ccccn1 (centres undefined) | – | > 100 µM | > 100 µM | > 100 µM | – | > 100 µM | > 100 µM | – | > 100 µM | – | > 100 µM | – | > 100 µM | > 100 µM | > 100 µM
Cc1cc2c(cc1C)C(=O)C1(C2)Cc2cc3c(cc2C1=O)CCC3 (centres undefined) | – | > 100 µM | > 100 µM | > 100 µM | – | > 100 µM | > 100 µM | – | > 100 µM | – | > 100 µM | – | > 100 µM | > 100 µM | > 100 µM
Cc1ccc(N=Nc2c(O)ccc3cc(S(=O)(=O)O)ccc23)cc1 | – | > 100 µM | > 100 µM and 25.2 µM | > 100 µM | – | > 100 µM | > 100 µM | – | > 100 µM | – | > 100 µM | – | > 100 µM | > 100 µM | > 100 µM
COc1ccc(NC(C(N)=O)c2cc3cc(Br)ccc3nc2Cl)cc1 (centres undefined) | – | > 100 µM | > 100 µM | > 100 µM | – | > 100 µM | > 100 µM | – | > 100 µM | – | > 100 µM | – | 37.9 µM | 56.5 µM | > 100 µM
CCOC(=O)/C=C(\C(=O)OCC)n1cc(Cl)c(=O)n(CC(=O)OCC)c1=O | – | 41.2 µM | 3.14 µM | 34.9 µM | – | 36.5 µM | 3.77 µM | – | 24.6 µM | – | > 93.8 µM | – | 3.6 µM | 35.5 µM | > 61.1 µM
O=c1c2cnccc2cc2c3ccccc3ccn12 | – | > 100 µM | > 100 µM | > 100 µM | – | > 100 µM | > 100 µM | – | > 100 µM | – | > 100 µM | – | > 100 µM | > 100 µM | > 100 µM
NCCCNOCCCN | – | > 100 µM | > 100 µM | > 100 µM | – | > 100 µM | > 100 µM | – | > 100 µM | – | > 100 µM | – | > 100 µM | > 100 µM | > 100 µM
CCCCSC1=N/C(=C\c2ccc(N(C)C)cc2)C(=O)N1 | – | > 100 µM | 42.9 µM | > 100 µM | – | > 100 µM | > 100 µM | – | 81.3 µM | – | > 100 µM | – | > 100 µM | > 100 µM | > 100 µM
CCN(CC)c1ccc(/C=C2\CCc3ccc([N+](=O)[O-])cc3C2=O)cc1 | – | > 100 µM | > 100 µM | > 100 µM | – | > 100 µM | > 29.9 µM | – | > 100 µM | – | > 30.7 µM | – | > 100 µM | 0.744 µM | 7.55 µM
C=C(C)[C@H]1C2=CC(C)=C(O2)[C@@H](O)[C@H](C(=C)C)CCC2=C[C@H]1OC2=O | – | > 100 µM | > 100 µM | > 100 µM | – | > 100 µM | > 100 µM | – | > 100 µM | – | > 100 µM | – | > 100 µM | > 100 µM | > 100 µM
COC(=O)C1=C(O)CCCC(C2CCCCC(=O)C2C(=O)OC)=C1 (centres undefined) | – | > 100 µM | > 100 µM | > 100 µM | – | > 100 µM | > 100 µM | – | 42.3 µM | – | > 100 µM | – | > 100 µM | > 100 µM | > 100 µM
CN(CCCNC(=O)c1nn(C)c2c1Cc1ccccc1-2)CCCNC(=O)c1nn(C)c2c1Cc1ccccc1-2 | – | 32.5 µM | 24.5 µM | 35.4 µM | – | 38.2 µM | 34.3 µM | – | 35.9 µM | – | > 68.9 µM | – | 36.2 µM | 27 µM | 34.7 µM
